# From publication PMC7539012, “Hyperphosphorylated tau aggregation and cytotoxicity modulators screen identified prescription drugs linked to Alzheimer's disease and cognitive functions” (Scientific Reports, 2020)
# Counter-ions that a name gives are not always drawn.
# Test system: T1, 1N4R p-tau
# T1 construct: made in house; host or cells: E. coli (PIMAX system)
# Experiment: p-tau aggregation modulator screen of 1280-compound library (ThS fluorescence net change over 16 h);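 for ThS net change: 30 µM compound with 6 µM p-tau over 16 h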
# Format: biochemical
# Set-up: key to PTAI>2SD: *: PTAI>2SD; key to PTAI>3SD: *: PTAI>3SD
# Settings: not given
row,SMILES,ThS net change
1,COCCCC/C(=N\OCCN)c1ccc(C(F)(F)F)cc1 [Fluvoxamine maleate],420
2,Cc1c(Cl)cccc1Nc1ncccc1C(=O)O.NCCCC[C@H](N)C(=O)O [Clonixin Lysinate],462
3,Cl.Oc1noc2c1CCNC2 [THIP Hydrochloride],448
4,C[C@]12C[C@H]3S[C@H]3C[C@@H]1CC[C@@H]1[C@@H]2CC[C@]2(C)[C@@H](O)CC[C@@H]12 [Epitiostanol],421
5,CCCSc1ccc2nc(NC(=O)OC)[nH]c2c1 [Albendazole],324
6,CCN(CC)C(=O)[C@]1(c2ccccc2)C[C@@H]1CN.Cl [Milnacipran hydrochloride],415
7,CCCCc1ccc2[nH]c(NC(=O)OC)nc2c1 [Parbendazole],465
8,C[C@]12C/C(=C/O)C(=O)C[C@@H]1CC[C@@H]1[C@@H]2CC[C@@]2(C)[C@H]1CC[C@]2(C)O [Oxymetholone],475

# Same assay, conditions: 1280-compound library screen; ThS fluorescence net change over 16 h
row,SMILES,ThS net change
1,C[C@@H]1[C@H](O)[C@@H](C)/C=C/C=C/C=C/C=C/C=C/C=C/C=C/[C@H](O[C@@H]2O[C@H](C)[C@@H](O)[C@H](N)[C@@H]2O)C[C@@H]2O[C@](O)(C[C@@H](O)C[C@@H](O)[C@H](O)CC[C@@H](O)C[C@@H](O)CC(=O)O[C@H]1C)C[C@H](O)[C@H]2C(=O)O [Amphotericin B],396
2,CCCN(CCC)CCc1cccc2c1CC(=O)N2 [Ropinirole HCl],388
3,CCCc1cc(C(N)=S)ccn1 [Prothionamide],412
4,COc1ccc(NS(=O)(=O)c2ccc(N)cc2)nn1 [Sulfamethoxypyridazine],392
5,Cc1cc2cc3c(C)cc(=O)oc3c(C)c2o1 [Trioxsalen],390
6,Oc1ncnc2[nH]ncc12 [Allopurinol],396
7,C=CCSCC1Nc2cc(Cl)c(S(N)(=O)=O)cc2S(=O)(=O)N1 (centres unmarked) [Althiazide],409
8,C=C1/C(=C\C=C2/CCC[C@]3(C)[C@@H]([C@H](C)/C=C/[C@@H](O)C4CC4)CC[C@@H]23)C[C@@H](O)C[C@@H]1O [Calcipotriene],407
9,Nc1c2ccccc2nc2ccccc12 [Aminacrine],408
10,C[C@@H]1CN(c2c(F)c(N)c3c(=O)c(C(=O)O)cn(C4CC4)c3c2F)C[C@H](C)N1 [Sparfloxacin],403
11,Nc1ccc(S(=O)(=O)Nc2ccccn2)cc1 [Sulfapyridine],394
12,[H]/N=C(/NCCCCC)N/N=C/c1c[nH]c2ccc(OC)cc12 [Tegaserod maleate],379
13,CCCNC(C)(C)COC(=O)c1ccccc1 [Meprylcaine hydrochloride],405
14,COc1ccccc1N1CCN(CCCNc2cc(=O)n(C)c(=O)n2C)CC1 [Urapidil hydrochloride],388

# Same assay, conditions: 1280-compound library screen; […]
row,SMILES,ThS net change
1,CCCCCN(C)CCC(O)(P(=O)([O-])O)P(=O)(O)O.[Na+] [Ibandronate sodium],394
2,S=C(NC1CCCCC1)N1CCC(c2cnc[nH]2)CC1 [Thioperamide maleate],385

# Same assay, conditions: flag: p-tau aggregation inhibitor, ThS net change more than 2 SD from mean
row,SMILES,PTAI>2SD
1,CO[C@H]1/C=C/O[C@@]2(C)Oc3c(C)c(O)c4c(O)c(c5c(nc6cc(C)ccn65)c4c3C2=O)NC(=O)/C(C)=C\C=C\[C@H](C)[C@H](O)[C@@H](C)[C@@H](O)[C@@H](C)[C@H](OC(C)=O)[C@@H]1C [Rifaximin],*

# Same assay, conditions: flag: p-tau aggregation inhibitor, ThS net change more than 3 SD from mean
row,SMILES,PTAI>3SD
1,CN1CCCC(n2nc(Cc3ccc(Cl)cc3)c3ccccc3c2=O)CC1 (centres unmarked) [Azelastine HCl],*

# Same assay, conditions: library screen, ThS fluorescence net change over 16 h with p-tau
row,SMILES,ThS net change
1,CO[C@H]1/C=C/O[C@@]2(C)Oc3c(C)c(O)c4c(O)c(c5c(nc6cc(C)ccn65)c4c3C2=O)NC(=O)/C(C)=C\C=C\[C@H](C)[C@H](O)[C@@H](C)[C@@H](O)[C@@H](C)[C@H](OC(C)=O)[C@@H]1C [Rifaximin],112
2,O=C1CN(/N=C/c2ccc(-c3ccc([N+](=O)[O-])cc3)o2)C([O-])=N1.[Na+] [Dantrolene sodium salt],286
3,CN1CCCC(n2nc(Cc3ccc(Cl)cc3)c3ccccc3c2=O)CC1 (centres unmarked) [Azelastine HCl],0
4,CC(C)N1CCN(c2ccc(OCC3COC(Cn4cncn4)(c4ccc(Cl)cc4Cl)O3)cc2)CC1 (centres unmarked) [Terconazole],326
5,CCN(CC)CCOC(=O)C1(C2CCCCC2)CCCCC1 [Dicyclomine hydrochloride],282
6,CCCCCCCCCCCCCCCC[N+](C)(C)CCN(Cc1ccc(OC)cc1)c1ncccn1 [Thonzonium bromide],312
7,[H]/N=C(\N/C(=N/[H])NCCCCCCNC(=N)NC(=N)Nc1ccc(Cl)cc1)Nc1ccc(Cl)cc1 [Chlorhexidine],317
8,CS(=O)(=O)OCCCCOS(C)(=O)=O [Busulfan],324
9,Cc1cccc(N(C)C(=S)Oc2ccc3ccccc3c2)c1 [Tolnaftate],219
10,CCN(CCCCOC(=O)c1ccc(OC)c(OC)c1)C(C)Cc1ccc(OC)cc1 (centres unmarked) [Mebeverine hydrochloride],295

# Same assay, conditions: p-tau aggregation modulator screen of 1280-compound library; ThS fluorescence net change
row,SMILES,ThS net change
1,Clc1cc(Cl)c(OCC#CI)cc1Cl [Haloprogin],374
2,C[C@]12C=CC(=O)C=C1CC[C@@H]1[C@@H]2[C@@H](O)C[C@@]2(C)[C@H]1CC[C@]2(O)C(=O)CO [Prednisolone],351
3,O=C(O)CCC(=O)c1ccc(-c2ccccc2)cc1 [Fenbufen],368
4,NC(=O)N1c2ccccc2CC(=O)c2ccccc21 [Oxcarbazepine],376
5,O=C(NCCO[N+](=O)[O-])c1cccnc1 [Nicorandil],376
6,COCC(=O)Nc1c(I)c(C(=O)NCC(O)CO)c(I)c(C(=O)N(C)CC(O)CO)c1I (centres unmarked) [Iopromide],359
7,Nc1ccc(S(N)(=O)=O)cc1 [Sulfanilamide],355
8,O=C(COc1ccc(Cl)cc1)N1CCN(Cc2ccc3c(c2)OCO3)CC1 [Fipexide hydrochloride],359
9,CC(COc1ccccc1)NC(C)C(O)c1ccc(O)cc1 (centres unmarked) [Isoxsuprine hydrochloride],347
10,C=C1C[C@@H]2[C@H](CC[C@]3(C)C(=O)CC[C@@H]23)[C@@]2(C)C=CC(=O)C=C12 [Exemestane],373
11,Cc1c(N(C)C)c(=O)n(-c2ccccc2)n1C [Amidopyrine],368
12,Cc1ncc([N+](=O)[O-])n1CCO [Metronidazole],365
13,CC(=O)S[C@@H]1CC2=CC(=O)CC[C@]2(C)[C@H]2CC[C@@]3(C)[C@@H](CC[C@@]34CCC(=O)O4)[C@H]12 [Spironolactone],372
14,COc1ccc2cc(CCC(C)=O)ccc2c1 [Nabumetone],357
15,C/C(=C(\CCOP(=O)(O)O)SC(=O)c1ccccc1)N(C=O)Cc1cnc(C)nc1N [Benfotiamine],375

# Same assay, conditions: p-tau aggregation modulator screen of 1280-compound library; […]
row,SMILES,ThS net change
1,CC[C@@]1([C@@H]2O[C@@H]([C@H]3O[C@@](O)(CO)[C@H](C)C[C@@H]3C)C[C@@H]2C)CC[C@H]([C@]2(C)CC[C@]3(C[C@H](O)[C@@H](C)[C@@H]([C@@H](C)[C@@H](OC)[C@H](C)C(=O)[O-])O3)O2)O1.[Na+] [Monensin sodium salt],342
2,Clc1ccc(C(Cn2ccnc2)OCc2csc3c(Cl)cccc23)c(Cl)c1 (centres unmarked) [Sertaconazole nitrate],344
3,Cc1cccc(C)c1N=C1NCCCS1 [Xylazine],366
4,CCn1cc(C(=O)[O-])c(=O)c2ccc(C)nc21.[Na+] [Nalidixic acid sodium salt],339
5,C[C@@]12N[C@@H](Cc3ccccc31)c1ccccc12.O=C(O)/C=C\C(=O)O [(-)-MK 801 hydrogen maleate],354

# Same assay, conditions: p-tau aggregation modulator screen of the compound library, ThS fluorescence net change
row,SMILES,ThS net change
1,CC(=O)OCC(CCn1cnc2cnc(N)nc21)COC(C)=O [Famciclovir],459
2,O=C1[C@H]2CCCC[C@H]2C(=O)N1CCCCN1CCN(c2nsc3ccccc23)CC1 [Perospirone],426
3,CC(=O)O[C@]1(C(C)=O)CC[C@H]2[C@@H]3C=C(Cl)C4=CC(=O)[C@@H]5C[C@@H]5[C@]4(C)[C@H]3CC[C@@]21C [Cyproterone acetate],432
4,C[C@]1(Cn2ccnn2)[C@H](C(=O)O)N2C(=O)C[C@H]2S1(=O)=O [Tazobactam],834
5,COc1cc2c(cc1OC)C(=O)C(CC1CCN(Cc3ccccc3)CC1)C2 (centres unmarked) [Donepezil hydrochloride],435
6,CCN1CCCC1CNC(=O)c1cc(S(=O)(=O)CC)c(N)cc1OC (centres unmarked) [Amisulpride],428
7,CCCNC(C)C(=O)Nc1c(C)csc1C(=O)OC (centres unmarked) [Articaine hydrochloride],450
8,CC(=O)O[C@]1(C(C)=O)CC[C@H]2[C@@H]3C=C(C)C4=CC(=O)CC[C@@H]4[C@H]3CC[C@@]21C [Nomegestrol acetate],463
9,CCC[C@H](N[C@@H](C)C(=O)N1[C@H](C(=O)O)C[C@@H]2CCCC[C@@H]21)C(=O)OCC [Perindopril],426
10,CC(C)(O)c1ccccc1CC[C@@H](SCC1(CC(=O)O)CC1)c1cccc(/C=C/c2ccc3ccc(Cl)cc3n2)c1 [Montelukast],592
11,C[C@@H](O)[C@H]1C(=O)N2C(C(=O)O)=C(S[C@@H]3CN[C@H](C(=O)N(C)C)C3)[C@H](C)[C@H]12 [Meropenem],490
12,CCN1CCC[C@H]1CNC(=O)c1c(OC)ccc(Br)c1OC.Cl [Remoxipride Hydrochloride],460
13,CC(C)(C)NC(=O)[C@@H]1C[C@@H]2CCCC[C@@H]2CN1C[C@@H](O)[C@H](Cc1ccccc1)NC(=O)[C@H](CC(N)=O)NC(=O)c1ccc2ccccc2n1 [Saquinavir mesylate],568
14,Cc1ccnc2c1NC(=O)c1cccnc1N2C1CC1 [Nevirapine],427
15,CC(C)Cn1cnc2c(N)nc3ccccc3c21 [Imiquimod],439
16,CCOC(=O)[C@H](CCc1ccccc1)N[C@@H](C)C(=O)N1[C@H](C(=O)O)C[C@@H]2CCC[C@@H]21 [Ramipril],436
17,C[C@@H]1C[C@H]2[C@@H]3CCC4=CC(=O)C=C[C@]4(C)[C@@]3(Cl)[C@@H](O)C[C@]2(C)[C@@]1(OC(=O)c1ccco1)C(=O)CCl [Mometasone furoate],484
18,CN(C)CCN(Cc1ccccc1)c1ccccn1 [Tripelennamine hydrochloride],414
